Experimental data as given in PubChem BioAssay AID248 (DTP/NCI, 2004).
Several values for one entry are separate records, joined by “and”; a condition that tells them apart may be missing. Equal values may be shown once. Inconclusive results and toxic doses are left out.

Test system: L1210 leukemia ip in BDF1 mice, survival T/C
Experiment: NCI In Vivo Anticancer Drug Screen. Data for tumor model L1210 Leukemia (intraperitoneal) in B6D2F1 (BDF1) mice
Conditions: endpoint: mean survival time, higher = longer survival
Summary of the method: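 Read-out is survival time, reported as the treated-group measurement over the vehicle-control measurement.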

[1] = dose: 100.0 mg/kg/injection, schedule: Q01DX009 (ip), vehicle: Klucel (hydroxypropylcellulose) (HPC)
[2] = dose: 100.0 mg/kg/injection, schedule: Q04DX003 (ip), vehicle: saline with Tween-80
[3] = dose: 200.0 mg/kg/injection, schedule: Q04DX003 (ip), vehicle: saline with Tween-80
[4] = dose: 400.0 mg/kg/injection, schedule: Q04DX003 (ip), vehicle: saline with Tween-80
[5] = dose: 100.0 mg/kg/injection, schedule: Q01DX009 (ip), vehicle: saline
[6] = dose: 100.0 mg/kg/injection, schedule: Q04DX003 (ip), vehicle: saline
[7] = dose: 200.0 mg/kg/injection, schedule: Q01DX009 (ip), vehicle: saline
[8] = dose: 200.0 mg/kg/injection, schedule: Q04DX003 (ip), vehicle: saline
[9] = dose: 400.0 mg/kg/injection, schedule: Q01DX009 (ip), vehicle: saline
[10] = dose: 400.0 mg/kg/injection, schedule: Q04DX003 (ip), vehicle: saline
[11] = dose: 100.0 mg/kg/injection, schedule: Q04DX003 (ip), vehicle: acetone
[12] = dose: 200.0 mg/kg/injection, schedule: Q04DX003 (ip), vehicle: acetone

COc1ccc2c(c1)CCC1=C2CCC(C)(C(C)=O)C1C(=O)O (configuration not stated)
T/C (dose: 25.0 mg/kg/injection, schedule: Q01DX009 (ip), vehicle: Klucel (hydroxypropylcellulose) (HPC)): 101 % of control
T/C (dose: 25.0 mg/kg/injection, schedule: Q04DX003 (ip), vehicle: Klucel (hydroxypropylcellulose) (HPC)): 97 % of control
T/C (dose: 50.0 mg/kg/injection, schedule: Q01DX009 (ip), vehicle: Klucel (hydroxypropylcellulose) (HPC)): 98 % of control
T/C (dose: 50.0 mg/kg/injection, schedule: Q04DX003 (ip), vehicle: Klucel (hydroxypropylcellulose) (HPC)): 100 % of control
T/C [1]: 95 % of control
T/C (dose: 100.0 mg/kg/injection, schedule: Q04DX003 (ip), vehicle: Klucel (hydroxypropylcellulose) (HPC)): 102 % of control and 87 % of control

O=N[C@@H]1CCC[C@H](Cl)C1
T/C [2]: 95 % of control
T/C [3]: 98 % of control
T/C [4]: 95 % of control

COC(=O)c1cc(C)n(C)c(=O)c1CNC(=O)c1ccccc1
T/C [5]: 97 % of control
T/C [6]: 107 % of control
T/C [7]: 96 % of control
T/C [8]: 97 % of control
T/C [9]: 97 % of control
T/C [10]: 91 % of control

Cc1cccn1C(C)c1ccccc1 (configuration not stated)
T/C [2]: 97 % of control
T/C [3]: 94 % of control
T/C [4]: 97 % of control

Nc1ccc(OCC(=O)N2CCOCC2)c(Cl)c1
T/C [5]: 100 % of control
T/C [6]: 110 % of control
T/C [7]: 102 % of control
T/C [8]: 98 % of control
T/C [9]: 96 % of control
T/C [10]: 101 % of control

C[CH2][Ge]([CH2]C)([CH2]C)[CH2]C#N
T/C (dose: 5.0 mg/kg/injection, schedule: Q04DX002 (ip), vehicle: saline with Tween-80): 100 % of control
T/C (dose: 10.0 mg/kg/injection, schedule: Q04DX002 (ip), vehicle: saline with Tween-80): 103 % of control
T/C (dose: 20.0 mg/kg/injection, schedule: Q04DX002 (ip), vehicle: saline with Tween-80): 100 % of control

CCN(CC)CCSC(=O)C(O)(c1ccc(C)cc1)c1ccc(C)cc1
T/C (dose: 75.0 mg/kg/injection, schedule: Q01DX001 (ip), vehicle: other): 90 % of control
T/C (dose: 150.0 mg/kg/injection, schedule: Q01DX001 (ip), vehicle: other): 96 % of control

Clc1nc2cc(Cl)c(Cl)cc2[nH]1
T/C [11]: 95 % of control
T/C [12]: 95 % of control

CN(C)/N=N/c1nc(Cc2ccccc2)[nH]c1C(N)=O
T/C [1]: 108 % of control
T/C (dose: 177.0 mg/kg/injection, schedule: Q01DX009 (ip), vehicle: Klucel (hydroxypropylcellulose) (HPC)): 116 % of control
T/C (dose: 200.0 mg/kg/injection, schedule: Q01DX009 (ip), vehicle: Klucel (hydroxypropylcellulose) (HPC)): 112 % of control
T/C (dose: 266.0 mg/kg/injection, schedule: Q01DX009 (ip), vehicle: Klucel (hydroxypropylcellulose) (HPC)): 122 % of control
T/C (dose: 266.0 mg/kg/injection, schedule: Q04DX003 (ip), vehicle: Klucel (hydroxypropylcellulose) (HPC)): 109 % of control
T/C (dose: 400.0 mg/kg/injection, schedule: Q01DX009 (ip), vehicle: Klucel (hydroxypropylcellulose) (HPC)): 155 % of control
T/C (dose: 400.0 mg/kg/injection, schedule: Q04DX003 (ip), vehicle: Klucel (hydroxypropylcellulose) (HPC)): 109 % of control
T/C (dose: 600.0 mg/kg/injection, schedule: Q04DX003 (ip), vehicle: Klucel (hydroxypropylcellulose) (HPC)): 106 % of control

Cn1cc(C(N)=O)ccc1=N
T/C [6]: 113 % of control
T/C [8]: 98 % of control
T/C [10]: 106 % of control

NC(=O)N/N=C1\CCCCC12CCCCC2
T/C [11]: 95 % of control
T/C [12]: 103 % of control
T/C (dose: 400.0 mg/kg/injection, schedule: Q04DX003 (ip), vehicle: acetone): 97 % of control

CCCCN1C(=S)NC(C)(C)C=C1C
T/C (dose: 12.5 mg/kg/injection, schedule: Q04DX003 (ip), vehicle: saline with Tween-80): 95 % of control
T/C (dose: 25.0 mg/kg/injection, schedule: Q04DX003 (ip), vehicle: saline with Tween-80): 98 % of control
T/C (dose: 50.0 mg/kg/injection, schedule: Q04DX003 (ip), vehicle: saline with Tween-80): 96 % of control

COc1cc(I)c(CC(=O)O)cc1OC
T/C (dose: 100.0 mg/kg/injection, schedule: Q01DX001 (ip), vehicle: saline): 97 % of control
T/C [5]: 93 % of control
T/C [6]: 96 % of control
T/C (dose: 200.0 mg/kg/injection, schedule: Q01DX001 (ip), vehicle: saline): 97 % of control
T/C [7]: 91 % of control
T/C [8]: 96 % of control
T/C (dose: 400.0 mg/kg/injection, schedule: Q01DX001 (ip), vehicle: saline): 96 % of control
T/C [9]: 96 % of control
T/C [10]: 90 % of control
